Assay results from US8936793B2, “Synthetic archaeal glycolipid adjuvants” (National Research Council of Canada, priority 2006, dated 2015).
One block for each molecule: values may come before it.

How the values were obtained:
[1] = incorporation of 36 mol % into archaeosomes; Sprott et al (23); cited from earlier work
[2] = test system: SIINFEKL stimulated IFN-γ-secreting cells; assay: Elispot assay of antigen-specific CD8+ T cell activity in splenic cells of immunized mice; type: in vivo, C57BL/6 mice; conditions: for antigen-specific CD8+ T cell response, Elispot, FIG. 10A: gentiotriose archaeol/anionic lipid/cholesterol (35/35/30, mol %), weeks 6 and 8; for CD8+ T cell adjuvant activity, Elispot, FIG. 7C: glyco-archaeol/DPPG/cholesterol (25/55/20, mol %)
Method: To determine adjuvant activity, various synthetic archaeosomes with OVA entrapped (OVA-archaeosomes) were used to immunize female C57BL/6 mice on days 0 and 21 (6-8 weeks old on first injection). Injections were subcutaneous at the tail base with 0.1 ml PBS containing 15 μg OVA entrapped in 0.2-0.63 mg lipids. Blood samples were collected from the tail vein for anti-OVA IgG/IgM antibody titration done by ELISA (13). In some cases faecal extracts were assayed for IgA (and IgG) to assess mucosal responses following systemic immunizations. Fresh faeces (about 30 mg dry weight) were collected from 4 mice/group, and extracted by adding 0.5 ml of phosphate buffered saline (pH 7.0) containing 10% fetal calf serum and 0.1% sodium azide. Homogenized samples were centrifuged and Elisa measured anti OVA antibody in supernatants. Spleens were collected to determine CTL activity using the Cr^51-assay with specific and non-specific targets EG.7 and EL-4, respectively (14). In Elispot assays antigen-specific CD8^+ T cell activity was measured in splenic cells from immunized mice by determining the number of […] stimulated IFN-γ-secreting cells per 5×10^5 splenic cells (15).

anti-OVA antibody = assay: Anti-OVA IgG/IgM antibody titration in blood of immunized mice by ELISA; type: in vivo, C57BL/6 mice; conditions: for antigen-specific antibody response, FIG. 10B: gentiotriose archaeol/anionic lipid/cholesterol (35/35/30, mol %), 9 weeks
Method: (§1) To determine adjuvant activity, various synthetic archaeosomes with OVA entrapped (OVA-archaeosomes) were used to immunize female C57BL/6 mice on days 0 and 21 (6-8 weeks old on first injection). Injections were subcutaneous at the tail base with 0.1 ml PBS containing 15 μg OVA entrapped in 0.2-0.63 mg lipids. Blood samples were collected from the tail vein for anti-OVA IgG/IgM antibody titration done by ELISA (13). In some cases faecal extracts were assayed for IgA (and IgG) to assess mucosal responses following systemic immunizations. Fresh faeces (about 30 mg dry weight) were collected from 4 mice/group, and extracted by adding 0.5 ml of phosphate buffered saline (pH 7.0) containing 10% fetal calf serum and 0.1% sodium azide. Homogenized samples were centrifuged and Elisa measured anti OVA antibody in supernatants. Spleens were collected to determine CTL activity using the Cr^51-assay with specific and non-specific targets EG.7 and EL-4, respectively (14). In Elispot assays antigen-specific CD8^+ T cell activity was measured in splenic cells from immunized mice by determining the number of SIINFEKL stimulated IFN-γ-secreting cells per 5×10^5 splenic cells (15).

[3] = test system: antigen specific EG.7 targets; assay: CTL activity in splenocytes of immunized mice, Cr51-assay; type: in vivo, C57BL/6 mice; conditions: for CTL adjuvant activity, FIG. 7B: disaccharide-archaeol/DPPG/cholesterol (25/55/20, mol %), 12 weeks
Method: as §1

[4] = Archaeosome formation upon hydration and stability on storage (microscopic examination, size); type: physicochemical; conditions: lipid hydrated alone
Excerpt: Presence of a relationship was explored between adjuvant activity and the mol % of the active ingredient, β-D-Glc-(1,6)-β-D-Glc-archaeol, mixed with DPPG/cholesterol. Cholesterol was maintained constant at 20 mol % with DPPG added as required to balance increasing amounts of β-D-Glc-(1,6)-β-D-Glc-archaeol. […] Hydration became more difficult at 60 mol % D-Glc-(1,6)-β-D-Glc-archaeol, and archaeosomes with 60 mol % of the synthetic glyco-archaeol increased in size during the removal of unentrapped antigen indicating instability (Table 11). […] Immunized mice developed CD8^+ T cell immune responses that were best at 15-45 mol % Glc2-archaeol content (FIG. 5).
The need for cholesterol, and the optimal mol % cholesterol needed to achieve stability of archaeosomes containing 35 mol % D-Glc-(1,6)-β-D-Glc-archaeol was explored. Cholesterol was varied in each preparation from 0, 10, 20, 30 and 45 mol %. DPPG made up the balance of each preparation. Lipids were mixed in solvent and archaeosomes were loaded with the antigen OVA as described in methods. Archaeosomes formed in all cases upon hydrating at 35° C. However, when stored at refrigeration temperatures (4-6° C.) these synthetic archaeosomes with no cholesterol were unstable, converting to amorphous lipid debris and needle shaped crystals. This instability was avoided by inclusion of 10 mol % or more cholesterol. […] The optimal cholesterol was therefore in the range of >10 to <45 mol %.
Archaeosomes/liposomes were prepared by hydrating 20-30 mg lipids at 40° C. in 2 ml of PBS buffer (10 mM sodium phosphate, 160 mM NaCl, pH 7.1) or water with (Ag-loaded) or without (Ag-free) the test antigen OVA dissolved at 10 mg/ml. In some cases, cholesterol (Sigma), DPPS, DPPE, or DPPG (Avanti Polar Lipids) polar lipids were mixed in chloroform/methanol with the synthetic glyco-archaeols. […] Quantification of antigen loading was done by SDS polyacrylamide gel electrophoresis as described and based on salt corrected dry weights (27). Average diameters were determined by particle size analysis using a 5 mW He/Ne laser (Nicomp 370).

[5] = test system: Listeria monocytogenes (LM)-OVA construct; assay: Protection against LM-OVA challenge after vaccination, splenic CFU; type: in vivo; conditions: glyco-archaeol/DPPG/chol (25/55/20, mol %), FIG. 13
Method: FIG. 13 illustrates protection against LM-OVA challenge after vaccination with OVA-adjuvant combinations. C57BL/6J mice were immunized on day 0 and 21 with 15 ug OVA entrapped in various synthetic archaeosomes composed of the respective synthetic glyco-archaeol/DPPG/chol (25/55/20, mol %). At 8 weeks, mice were challenged with 10^4 intravenous dose of Listeria monocytogenes (LM)-OVA construct. Mice were euthanized 3 days later. Mean±SEM of splenic colony forming units (CFU) is shown for each group.

B16OVA cells = assay: Skin melanoma solid tumor model, protection upon vaccination; type: in vivo, C57BL/6 mice; conditions: 5 mice/group, vaccinated s.c. with 15 μg OVA at 0 and 3 weeks, archaeal lipid/DPPG/cholesterol 25/55/20 mol %
Method: A skin melanoma solid tumor model was used in mice to evaluate protection achieved upon vaccination with synthetic archaeosomes. Mice were vaccinated subcutaneously with 15 μg OVA or synthetic archaeosome compositions containing 15 μg OVA at 0 and 3 weeks. Archaeosome lipid compositions were synthetic archaeal lipid/DPPG/cholesterol (25/55/20 mol %). At week 7 post first injection 5×10^6 B16OVA cells were injected subcutaneously in the shaved lower dorsal area. The time was recorded when solid tumours became evident.

Molecule: CC(C)CCCC(C)CCCC(C)CCCC(C)CCOCC(CO[C@@H]1O[C@H](CO[C@@H]2O[C@H](CO)[C@@H](O)[C@H](O)[C@H]2O)[C@@H](O)[C@H](O)[C@H]1O)OCCC(C)CCCC(C)CCCC(C)CCCC(C)C (stereo partly drawn) [DGAs, β-D-Glc-(1,6)-β-D-Glc-archaeol]
adjuvant activity [1]: striking decline in adjuvant activity

Molecule: CCCCCCCCCCCCCCCC(=O)OCC(COP(=O)(O)OCCN)OC(=O)CCCCCCCCCCCCCCC (stereo not drawn) [DPPE, reference compound]
antigen-specific CD8+ T cell response, Elispot, FIG. 10A [2]: relatively low CD8^+ T cell activity | Elispot activity as % of the activity found for DPPG ([2]; gentiotriose-archaeol/anionic lipid/cholesterol (35/35/30, mol %), 6 weeks, data not shown): 27% | antigen-specific antibody response, FIG. 10B (anti-OVA antibody): equivalent in antibody response to archaeosomes containing archaetidylglycerol

Molecule: CCCCCCCCCCCCCCCC(=O)OCC(COP(=O)(O)OCC(O)CO)OC(=O)CCCCCCCCCCCCCCC (stereo not drawn) [DPPG, dipalmitoylphosphatidylglycerol, reference compound]
antigen-specific CD8+ T cell response, Elispot, FIG. 10A [2]: transient

archaeosome formation upon hydration [4]: did not form readily
Molecule: CC(C)CCC[C@@H](C)CCC[C@@H](C)CCC[C@@H](C)CCOC[C@H](CO[C@@H]1O[C@H](CO[C@@H]2O[C@H](CO)[C@@H](O)[C@H](O)[C@H]2O)[C@@H](O)[C@H](O)[C@H]1O)OCC[C@H](C)CCC[C@H](C)CCC[C@H](C)CCCC(C)C [Glc2-archaeol]
CD8+ T cell adjuvant activity, Elispot, FIG. 7C ([2]; 6 weeks): best | anti-OVA antibody response, FIG. 4B (anti-OVA antibody; 15 μg OVA s.c. 0 and 3 weeks, 6 and 11 weeks): dramatic increase | CTL response, FIG. 4A ([3]; 15 μg OVA s.c. 0 and 3 weeks, 6 weeks from first injection): dramatic increase | mol % Glc2-archaeol content at which CD8+ T cell immune responses were best ([3]; cholesterol 20 mol %, DPPG remainder, FIG. 5): 15-45 mol %

archaeosome formation upon hydration [4]: did not form readily
Molecule: CC(C)CCC[C@@H](C)CCC[C@@H](C)CCC[C@@H](C)CCOC[C@H](CO[C@H]1O[C@H](CO)[C@@H](O)[C@H](O)[C@@H]1O)OCC[C@H](C)CCC[C@H](C)CCC[C@H](C)CCCC(C)C [Man1-C]

archaeosome formation upon hydration [4]: did not form readily
Molecule: CC(C)CCC[C@@H](C)CCC[C@@H](C)CCC[C@@H](C)CCOC[C@H](CO[C@H]1O[C@H](CO)[C@@H](O)[C@H](O)[C@@H]1O[C@H]1O[C@H](CO)[C@@H](O)[C@H](O)[C@@H]1O)OCC[C@H](C)CCC[C@H](C)CCC[C@H](C)CCCC(C)C [Man2-C]

Molecule: CC(C)CCC[C@@H](C)CCC[C@@H](C)CCC[C@@H](C)CCOC[C@H](CO[C@@H]1O[C@H](CO[C@@H]2O[C@H](CO[C@@H]3O[C@H](CO)[C@@H](O)[C@H](O)[C@H]3O)[C@@H](O)[C@H](O)[C@H]2O)[C@@H](O)[C@H](O)[C@H]1O)OCC[C@H](C)CCC[C@H](C)CCC[C@H](C)CCCC(C)C [gentiotriose-A]
protection from LM-OVA infection [5]: Best protection

Molecule: CC(C)CCC[C@@H](C)CCC[C@@H](C)CCC[C@@H](C)CCOC[C@H](CO[C@@H]1O[C@H](CO[C@H]2O[C@H](CO)[C@@H](O)[C@H](O)[C@H]2O)[C@@H](O)[C@H](O)[C@H]1O)OCC[C@H](C)CCC[C@H](C)CCC[C@H](C)CCCC(C)C [isomaltose-A]
CD8+ T cell adjuvant activity, Elispot, FIG. 7C ([2]; 6 weeks): lower CD8^+ T cell responses | protection from LM-OVA infection [5]: less protective | antibody responses, FIG. 7D (anti-OVA antibody; glyco-archaeol/DPPG/cholesterol (25/55/20, mol %), 6 weeks): quite strong

Molecule: CC(C)CCC[C@@H](C)CCC[C@@H](C)CCC[C@@H](C)CCOC[C@H](CO[C@@H]1O[C@H](CO)[C@@H](O[C@@H]2O[C@H](CO)[C@H](O)[C@H](O)[C@H]2O)[C@H](O)[C@H]1O)OCC[C@H](C)CCC[C@H](C)CCC[C@H](C)CCCC(C)C [lactose-archaeol]
CTL adjuvant activity, FIG. 7B [3]: strong

Molecule: CC(C)CCC[C@@H](C)CCC[C@@H](C)CCC[C@@H](C)CCOC[C@H](CO[C@@H]1O[C@H](CO[C@H]2O[C@H](CO)[C@H](O)[C@H](O)[C@H]2O)[C@@H](O)[C@H](O)[C@H]1O)OCC[C@H](C)CCC[C@H](C)CCC[C@H](C)CCCC(C)C [melibiose-archaeol]
CTL adjuvant activity, FIG. 7B [3]: strong

Molecule: Sulfonoquinovosyl diacylglycerol [SQDG]
antigen-specific CD8+ T cell response, Elispot, FIG. 10A [2]: Best activity

Molecule: archaetidylglycerol [AG]
antigen-specific CD8+ T cell response, Elispot, FIG. 10A [2]: Best activity | CTL adjuvant activity, FIG. 3 ([3]; 15 μg OVA s.c. 0 and 3 weeks, spleens 7 weeks after first immunization): little ability to serve as adjuvants

Molecule: archaetidylglycerophosphate-methyl [AGP-CH3]
antigen-specific CD8+ T cell response, Elispot, FIG. 10A [2]: Best activity

Molecule: archaetidylinositol
antigen-specific antibody response, FIG. 10B (anti-OVA antibody): favoured the antibody CD4^+ T cell response over the CD8^+ T cell response

B1: OVA (protein, UniProt P01012 2-386, looked up)
Ovalbumin: GSIGAASMEFCFDVFKELKVHHANENIFYCPIAIMSALAMVYLGAKDSTRTQINKVVRFDKLPGFGDSIEAQCGTSVNVHSSLRDILNQITKPNDVYSFSLASRLYAEERYPILPEYLQCVKELYRGGLEPINFQTAADQARELINSWVESQTNGIIRNVLQPSSVDSQTAMVLVNAIVFKGLWEKAFKDEDTQAMPFRVTEQESKPVQMMYQIGLFRVASMASEKMKILELPFASGTMSMLVLLPDEVSGLEQLESIINFEKLTEWTSSNVMEERKIKVYLPRMKMEEKYNLTSVLMAMGITDVFSSSANLSGISSAESLKISQAVHAAHAEINEAGREVVGSAEAGVDAASVSEEFRADHPFLFCIKHIATNAVLFFGRCVSP
numbers of mice that developed a solid tumor (B16OVA cells; 6 days from subcutaneous injection of B16OVA tumor cells): 2 | numbers of mice that developed a solid tumor (B16OVA cells; 9 days from subcutaneous injection of B16OVA tumor cells): 3 | numbers of mice that developed a solid tumor (B16OVA cells; 16 days from subcutaneous injection of B16OVA tumor cells): 4 | numbers of mice that developed a solid tumor (B16OVA cells; 20 days from subcutaneous injection of B16OVA tumor cells): euthanized
